Data reported in US20240158446A1, “CYCLIC COMPOUND HAVING SELECTIVE INHIBITORY ACTION ON KRAS OVER HRAS AND NRAS” (CHUGAI SEIYAKU KABUSHIKI KAISHA, priority 2021, published 2024).

Experiments:
[1] = molecular target: GDP-bound NRAS wild-type protein (Homo sapiens, UniProt P01111); test: Binding to NRAS by surface plasmon resonance (SPR), Single Cycle Kinetics; details: SPR, GDP-bound NRAS wild-type protein vs GDP-bound KRAS wild-type protein
[2] = molecular target: GDP-bound HRAS wild-type protein (Homo sapiens, UniProt P01112); test: Binding to HRAS by surface plasmon resonance (SPR), Single Cycle Kinetics; details: SPR, GDP-bound HRAS wild-type protein vs GDP-bound KRAS wild-type protein
[3] = molecular target: GDP-bound KRAS wild-type protein (Homo sapiens, UniProt P01116); test: Binding to KRAS by surface plasmon resonance (SPR), Single Cycle Kinetics; details: SPR, Single Cycle Kinetics, GDP-bound KRAS wild-type protein; read-out: KRAS KD
Chain of GDP-bound KRAS wild-type protein (P01116 whole entry): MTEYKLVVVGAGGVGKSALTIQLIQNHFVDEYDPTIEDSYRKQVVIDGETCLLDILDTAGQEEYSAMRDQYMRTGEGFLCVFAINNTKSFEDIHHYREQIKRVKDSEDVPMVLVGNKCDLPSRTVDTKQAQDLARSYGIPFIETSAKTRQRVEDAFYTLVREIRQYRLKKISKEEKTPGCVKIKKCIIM

Chain of GDP-bound NRAS wild-type protein (P01111 whole entry): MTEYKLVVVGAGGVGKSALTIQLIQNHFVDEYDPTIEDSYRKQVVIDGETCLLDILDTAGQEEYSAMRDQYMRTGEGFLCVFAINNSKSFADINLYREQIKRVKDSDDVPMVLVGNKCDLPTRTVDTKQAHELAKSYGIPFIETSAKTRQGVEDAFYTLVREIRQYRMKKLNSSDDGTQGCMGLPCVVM
Chain of GDP-bound HRAS wild-type protein (P01112 whole entry): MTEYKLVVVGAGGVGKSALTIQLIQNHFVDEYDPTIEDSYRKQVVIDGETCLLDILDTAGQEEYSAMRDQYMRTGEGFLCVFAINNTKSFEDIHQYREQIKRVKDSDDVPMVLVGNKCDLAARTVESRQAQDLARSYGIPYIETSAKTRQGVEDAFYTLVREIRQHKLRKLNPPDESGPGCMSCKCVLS

SMILES | NRAS/KRAS (ratio of KD value for NRAS to KD value for KRAS) [1] | HRAS/KRAS (ratio of KD value for HRAS to KD value for KRAS) [2] | Kd [3]
CCC[C@H]1C(=O)N[C@@H]([C@@H](C)CC)C(=O)N(C)CC(=O)N(C)[C@H]2C/C=C\CCN(C2=O)[C@@H](Cc2ccc(C)cc2)C(=O)N(C)CC(=O)N[C@@H](CCc2ccc(C(F)(F)F)c(Cl)c2)C(=O)N2C[C@H](OCC)C[C@H]2C(=O)NC2(CC(C)(C)C2)C(=O)N(C)[C@@H](CC(C)(C)C)C(=O)N(C)[C@H](C(=O)N(C)C)CC(=O)N1C [PP2230] | A (a compound having 10 or more and less than 20 is denoted as A) | A (a compound having 10 or more and less than 20 is denoted as A) | 0.082 nM
CCC[C@@H]1C[C@H]2C(=O)NC3(CCC3)C(=O)N(C)[C@@H](C3CCCC3)C(=O)N(C)[C@H](C(=O)N(C)C)CC(=O)N(C)[C@@H](CC(C)C)C(=O)N[C@@H]([C@@H](C)CC)C(=O)N(C)CC(=O)N(C)[C@H]3C/C=C\CCN(C3=O)[C@@H](Cc3ccc(C)cc3)C(=O)N(C)CC(=O)N[C@@H](CCc3cc(F)c(C(F)(F)F)c(F)c3)C(=O)N2C1 [PP2231] | A (a compound having 10 or more and less than 20 is denoted as A) | B (a compound having 3 or more and less than 10 is denoted as B) | 0.18 nM
CCCOC[C@H]1C(=O)N[C@@H]([C@@H](C)CC)C(=O)N(C)CC(=O)N(C)[C@H]2C/C=C\CCN(C2=O)[C@@H](Cc2ccc(C)cc2)C(=O)N(C)CC(=O)N[C@@H](CCc2ccc(C(F)(F)F)c(Cl)c2)C(=O)N2C[C@H](C)C[C@H]2C(=O)NC2(CC(C)(C)C2)C(=O)N(C)[C@@H](C2CCCC2)C(=O)N(C)[C@H](C(=O)N(C)C)CC(=O)N1C [PP2234] | A (a compound having 10 or more and less than 20 is denoted as A) | A (a compound having 10 or more and less than 20 is denoted as A) | 0.19 nM
CCC[C@@H]1C[C@H]2C(=O)NC3(CCC3)C(=O)N(C)[C@@H](C3CCCC3)C(=O)N(C)[C@H](C(=O)N(C)C)CC(=O)N(C)[C@@H](CCC)C(=O)N[C@@H]([C@@H](C)CC)C(=O)N(C)CC(=O)N(C)[C@H]3C/C=C\CCN(C3=O)[C@@H](Cc3ccc(C)cc3)C(=O)N(C)CC(=O)N[C@@H](CCc3ccc(C(F)(F)F)c(Cl)c3)C(=O)N2C1 [PP2238] | A (a compound having 10 or more and less than 20 is denoted as A) | A (a compound having 10 or more and less than 20 is denoted as A) | 0.2 nM
CCO[C@@H]1C[C@H]2C(=O)NC3(CC(C)(C)C3)C(=O)N(C)[C@@H](C3CCCC3)C(=O)N(C)[C@H](C(=O)N(C)CC)CC(=O)N(C)[C@H]3CCCCCc4ccc(cc4)C[C@@H](C(=O)N(C)CC(=O)N[C@@H](CCc4ccc(C(F)(F)F)c(OC)c4)C(=O)N2C1)N1CC/C=C\C[C@@H](C1=O)N(C)C(=O)CN(C)C(=O)[C@H]([C@@H](C)CC)NC3=O [PP2259] | A (a compound having 10 or more and less than 20 is denoted as A) | B (a compound having 3 or more and less than 10 is denoted as B) | 0.12 nM
